According to patent publication EP2340832A1, “Morphinan-6-one compounds for the treatment or prevention of neurodegenerative diseases” (Universität Innsbruck, priority 2009, dated 2011):
Where two headings read alike, the source gives them in different places.

Key:
[1] = test system: frontal cortex synaptosomes; assay: ACh release from synaptosomes (15 mM K+-evoked [3H]-ACh release, superfusion); format: cell-based, male Sprague Dawley rats
Description: Preparation of synaptosomes: synaptosomes were prepared from brain frontal cortex of male Sprague Dawley rats (4 months old). The frontal cortex was rapidly dissected on ice and homogenized in 40 volumes of 0.32 M sucrose buffered at pH 7.4 with 0.01 M sodium phosphate. The homogenate was centrifuged at 1,000 g for 5 min. The crude synaptosomal pellet was obtained by centrifugation of the supernatant at 15,000 g for 20 min and was resuspended in 5 ml basal medium (125 mM Nacl, 3 mM KCI, 1.2 mM MgS04, 1.2 mM CaCl2, 1.0 mM NaH2PO4, 22 mM NaHCO3 and 10 mM glucose) which had been gassed with 95% O2 - 5% CO2 at 37 °C, pH 7.2 - 7.4.
Superfusion protocol: The synaptosomal suspension was incubated with [^3H]-choline (0.03 µM, 17.5x10^6 Bq/g) for 15 min at 37 °C. Then, the suspension was diluted (1:8) and aliquots were applied on filters in a continuous superfusion system with parallel chambers maintained at 37 °C. The media used for superfusion were basal medium and 15 mM K^+-containing stimulation medium. Both media were supplemented with ACh (1 µM) to facilitate the effectiveness of an allosteric potentiating ligand at the nicotine receptor and with atropine (0.1 µM) to block M2 presynaptic receptors. Synaptosomes were superfused with basal medium for 30 min to reach a constant outflow of [^3H]-ACh. Under these experimental conditions, the radioactivity released consisted largely of newly synthesized [^3H]-ACh. The K^+-stimulated release of [^3H]-ACh was determined in 2 subsequently collected fractions: 6 min basal release (superfusion with basal medium) and 6 min K^+-evoked release (superfusion for 1.5 min with 15 mM K^+-containing medium followed by […] basal medium). The test compounds galantamine, 4 and 2 were present in the superfusion medium concomitantly with 15 mM K^+ (for 1.5 min). Basal release of [^3H]-ACh (continuous superfusion with basal medium) was determined by collection of a 6 min sample followed by four subsequent 2 min samples. Aliquots of samples were mixed with scintillation liquid and the radioactivity quantified with a scintillation counter. The radioactivity bound to the filters was also measured.
Statistical analysis: The amount of [^3H]-ACh released in each sample was calculated as fraction of total synaptosomal tritium at the start of the respective collection period (tritium in the sample / sum of tritium in the respective fractions and in the synaptosomes on the filter). K^+-evoked release was expressed as percentage of basal release rate. Each n=1 represents the mean of an experiment with one synaptosomal preparation in at least 3 superfusion chambers. Statistical significance of group variances was calculated by one way ANOVA followed by Bonferroni's test.

C57BL/6N female mice [2] = assay: Object recognition task; details: for object recognition (memory): normal mice; for effect on scopolamine-induced impairment of object recognition: scopolamine-pretreated mice
[3] = molecular target: T1, σ receptors labelled by [^3H](+)-pentazocine (σ1) (Cavia porcellus, UniProt Q60492); assay: Sigma receptor binding assay, [3H](+)-pentazocine; design: species or system guinea pig
T1 construct: from tissue; host or cells: guinea pig brain membranes
Description: Filters were washed three times with 5 ml of ice-cold 10 mM Tris-HCI buffer (pH 8). The bound radioactivity was measured by liquid scintillation counting (Beckman Coulter™ LS6500). […] The values are expressed as the mean ± S.E.M of 2 - 4 independent experiments, each performed in duplicate.

C57BL/6N female mice [4] = assay: T-maze continuous alternation; details: for spontaneous alternation rate: normal mice
k opioid receptors = molecular target: T2, k opioid receptors (Cavia porcellus, UniProt P41144); assay: Opioid receptor binding assay, [3H]U69,593, guinea pig brain membranes
T2 construct: Membrane fractions were prepared from Sprague-Dawley rat or guinea pig brains; from tissue; host or cells: guinea pig brain (without cerebella) membranes

[5] = scopolamine 0.033 µmol, compound 0.01 and 0.1 µmol i.c.v.

T2 sequence (P41144 whole entry): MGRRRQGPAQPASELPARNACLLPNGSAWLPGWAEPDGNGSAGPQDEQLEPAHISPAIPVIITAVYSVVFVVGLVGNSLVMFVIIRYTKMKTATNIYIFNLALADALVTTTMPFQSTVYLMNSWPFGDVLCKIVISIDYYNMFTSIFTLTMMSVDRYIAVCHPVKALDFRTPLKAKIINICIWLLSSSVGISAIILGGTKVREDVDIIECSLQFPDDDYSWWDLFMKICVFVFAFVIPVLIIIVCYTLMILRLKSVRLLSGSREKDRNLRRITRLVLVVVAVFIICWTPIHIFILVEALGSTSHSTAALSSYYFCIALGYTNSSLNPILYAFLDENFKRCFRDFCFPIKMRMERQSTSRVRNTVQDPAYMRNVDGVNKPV
T1 sequence (Q60492 whole entry): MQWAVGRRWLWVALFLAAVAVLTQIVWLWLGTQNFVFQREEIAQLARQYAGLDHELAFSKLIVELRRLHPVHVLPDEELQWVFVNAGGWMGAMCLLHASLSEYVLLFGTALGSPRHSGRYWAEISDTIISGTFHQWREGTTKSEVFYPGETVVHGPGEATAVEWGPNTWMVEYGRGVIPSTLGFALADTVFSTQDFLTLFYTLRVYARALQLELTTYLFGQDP

Row | Compound | concentration of maximal effect on stimulation-evoked ACh release ([1]; 15 mM K+) [µM] | influence of the nAChR antagonist mecamylamine on the compound-induced release ([1]; at the maximally effective concentration (1: 50 µM)) | effect on stimulation-evoked ACh release ([1]; lower (0.1 and 1 µM) and higher concentrations (100 µM)) | object recognition (memory) (C57BL/6N female mice [2]; 0.01 µmol i.c.v.) | object recognition (memory) (C57BL/6N female mice [2]; 0.1 µmol i.c.v.) | effect on scopolamine-induced impairment of object recognition (C57BL/6N female mice [2]; 0.01 µmol i.c.v.) | IC50 [3] [µM] | spontaneous alternation rate (C57BL/6N female mice [4]; 0.01 and 0.1 µmol i.c.v.) | effect on scopolamine-increased running time (C57BL/6N female mice [4]; [5]) | effect on scopolamine-induced reduction in alternation (C57BL/6N female mice [4]; [5]) | Ki (k opioid receptors) [µM] | binding to opioid receptor K (in words) (k opioid receptors) | Ki (k opioid receptors; read-out: Opioid binding affinities Ki κ receptor, [3H]U69,593, guinea pig brain membranes) [µM] | effect on K+-evoked ACh release in frontal-cortex synaptosomes ([1]; 0.01 to 10 µM) | object recognition (memory) (C57BL/6N female mice [2]; 0.05 µmol i.c.v.) | effect on scopolamine-induced impairment of object recognition (C57BL/6N female mice [2]; 0.05 µmol i.c.v.) | spontaneous alternation rate (C57BL/6N female mice [4]; 0.05 µmol i.c.v.) | spontaneous alternation rate (C57BL/6N female mice [4]; lower (0.001; 0.01 and 0.025 µmol) or higher doses (0.1 µmol) i.c.v.) | effect on scopolamine-induced reduction in alternation (C57BL/6N female mice [4]; scopolamine 0.033 µmol, compound 0.01 µmol i.c.v., not shown) | effect on scopolamine-induced reduction in alternation (C57BL/6N female mice [4]; scopolamine 0.033 µmol, compound 0.05 µmol i.c.v.)
1 | O=CN1CC[C@]23CC(=O)CC[C@H]2[C@H]1Cc1c(O)ccc(O)c13 [Compound 1, 1,4-dihydroxy-N-formylmorphinan-6-one] | 50 | did not influence | ineffective | did not influence memory | significant impairment | abolished the scopolamine-induced impairment of object recognition | > 10 | did not influence alternation | did not influence | abolished the cholinergic impairment of alternation | > 10 | does not bind | > 10 | – | – | – | – | – | – | –
2 | C=CCN1CC[C@]23CC(=O)CC[C@H]2[C@H]1Cc1cccc(OC)c13 [Compound 4, 4-methoxy-N-allylmorphinan-6-one] | – | – | – | – | – | – | > 0.01 | – | – | – | 0.0331 | – | – | did not influence ACh release | small impairment of memory | abolished the scopolamine-induced impairment of object recognition | decreased spontaneous alternation rate | did not exert a significant effect | ineffective | ameliorated
